Assay results published in US11370825B2, “Polypeptides, cells, and methods involving engineered CD16” (Regents of the University of Minnesota, priority 2014, dated 2022).

Columns and labels:
ADAM17 = test: Anti-ADAM17 mAb staining of NK92 cells expressing CD16a or CD16a/S197P, flow cytometry; type: cell-based, human; details: NK92 cells expressing CD16a compared with CD16a/S197P; multiple anti-ADAM17 mAbs
Procedure: FIG. 4. Effects of the engineered S197P mutation on CD16a shedding in NK cells. NK92 cells transduced with empty vector (vector only), CD16a, or CD16a/S197P were treated without (Unstim.) or with PMA (100 ng/ml) for 30 minutes at 37° C. (A), with IL-12 and IL-18 (100 ng/ml and 400 ng/ml, respectively) for 24 hours at 37° C. (B), or with Raji cells and rituximab for 60 minutes at 37° C. (C). Cell surface levels of CD16a were determined by flow cytometry. Isotype-matched negative control antibody staining is indicated by a dotted line. […] Soluble CD16a levels were determined by ELISA. […] For all histogram plots, the x-axis=Log 10 fluorescence, the y-axis=cell number, and the data are representative of at least 3 independent experiments.
(§1) For cell staining, nonspecific antibody binding sites were blocked and cells were stained with the indicated antibodies and examined by flow cytometry, as previously described (Wang et al., 2013, Biochim Biophys Acta. 1833:680-685; Romee et al., 2013, Blood 121:3599-3608). […] Human CD16 was detected by the mAbs 3G8 (BioLegend, Inc., San Diego, Calif.) and DJ130c (Santa Cruz Biotech, Santa Cruz, Calif.). CD107a was detected by the mAb H4A3 (Biolegend, Inc., San Diego, Calif.). ADAM17 was detected by the mAbs M220 (Doedens et al., 2000, J Biol Chem. 275:14598-14607), 111633, and 111623 (R&D Systems, Inc., Minneapolis, Minn.). […]

iPSC-derived NK cells = test: Cell surface CD16a on iPSC-derived NK cells stimulated with K562 cells, flow cytometry; type: cell-based, human; details: iPSC-derived NK cells with K562 target cells (2:1 ratio), four hours at 37° C.
monomeric human IgG = test: Antibody binding assay: monomeric human IgG and IgA binding to NK92 cells expressing CD16a or CD16a/S197P; details: NK92 cells expressing the receptor; IgA 20 μg/ml
Procedure: (§2) FIG. 5. Effects of the engineered S197P mutation on CD16a function. (A) NK92 cells expressing CD16a or CD16a/S197P at equivalent levels (left panel) were treated with monomeric human IgG (0-20 μg/ml). As controls, cells were also treated with monomeric human IgA (20 μg/ml), and NK92 parent cells were treated with IgG (20 μg/ml) (bar). Antibody binding was determined by flow cytometry, as described in Materials and Methods. […] Statistical significance is indicated as *P<0.05 versus IgG (0 μg/ml), IgA, or NK92 parent cells+IgG. (B) Mock transduced NK92 cells or NK92 cells expressing CD16a or CD16a/S197P were incubated in the absence (Unstim.) or presence of Raji cells treated with or without anti-CD20 rituximab for the indicated time points at 37° C. NK92 cell activation was assessed by the up-regulation in CD107a staining by flow cytometry. For the histogram plots, the x-axis=Log 10 fluorescence and the y-axis=cell number. Data are representative of at least 3 independent experiments.
Cell binding to monomeric human IgG and IgA (Sigma-Aldrich, St. Louis, Mo.) was performed as previously described with some modifications (Dong et al., 2014, Arthritis Rheumatol. 66:1291-1299). […] The cells were washed and then immediately analyzed by flow cytometry.

NK92 cells = test: NK92 cell activation: CD107a up-regulation on incubation with Raji cells with or without rituximab, flow cytometry; type: cell-based, human
Procedure: as §2
HEK293 and NK92 cells in RPMI 1640 media (Mediatech, Inc., Manassas, Va.) were activated with 15 ng/ml and 100 ng/ml, respectively, PMA for 30 minutes at 37° C. NK92 cells were activated with IL-12 (PeproTech Inc, Rocky Hill, N.J.) and IL-18 (R&D Systems, Inc., Minneapolis, Minn.) at 100 ng/ml and 400 ng/ml, respectively, for the indicated time points. NK92 cell activation through CD16a was mediated by their incubation with the CD20-positive Burkitt's lymphoma cell line Raji (ATCC, grown according to the depository's instructions) (1:1 ratio) treated with the anti-CD20 mAb rituximab (1 μg/ml) (Genentech, Inc., South San Francisco, Calif.), as described previously (Romee et al., 2013, Blood 121:3599-3608). Excess rituximab was removed by washing the Raji cells. In some experiments, NK92 cells were pre-incubated for 30 minutes with the selective ADAM17 inhibitor BMS566394 (5 μM) (Bristol-Myers Squibb Company, Princeton, N.J.). […]
as §1, with “Minn.). Human L-selectin was detected by the mAb LAM1-116 (Ancell Corp., Stillwater, Minn.).” for “Minn.).”

[1] = NK92 cells incubated with Raji cells alone
[2] = NK92 cells incubated with Raji cells treated with rituximab

Row | Substance | ADAM17 cell surface levels (ADAM17) | cell surface expression of CD16a after stimulation (iPSC-derived NK cells) | monomeric IgA binding (control) (monomeric human IgG) | up-regulation of CD107a (NK92 cells; [1]) | up-regulation of CD107a (NK92 cells; [2])
1 | CD16a: Wild-type human IgG Fc receptor CD16a (FcγRIIIa), valine allelic variant, recombinant comparator [reference compound] | identical cell surface levels | marked down-regulation | essentially background levels | marginally up-regulated | considerable up-regulation
2 | CD16a/S197P: Human CD16a (FcγRIIIa, SEQ ID NO:1) with serine-197 substituted by proline in the membrane proximal cleavage region; expressed recombinantly in cells | identical cell surface levels | remained stable | essentially background levels | marginally up-regulated | considerable up-regulation
